Patent publication US20260177565A1, “INHIBITOR FOR GLUCOSE UPTAKE INTO RED BLOOD CELLS, SUPPRESSANT FOR GLUCOSE CONCENTRATION REDUCTION IN BLOOD-COLLECTING TUBE, AND BLOOD-COLLECTING TUBE INCLUDING SAME” (THE UNIVERSITY OF TOKYO, priority 2022, published 2026)
Entries after “also recorded” stand apart in the source; their conditions may differ.

Test system: red blood cells
Assay: Fluorescently labeled glucose uptake into red blood cells (Glucose Uptake Assay Kit-Green)
Format: cell-based, human
Settings: for uptake of fluorescently labeled glucose / fluorescence in red blood cells (in words): concentrations as in Table 5; for Fluorescence intensity of fluorescently labeled glucose uptake into red blood cells: control (PBS(−)) 613.5
Protocol: Blood collected in the blood collection tube B from a volunteer subject was centrifuged at 3000 rpm for 5 minutes within 10 minutes, and plasma was discarded to obtain fresh red blood cells. The red blood cells were washed with PBS(−) and used for the following tests (washed red blood cells).
The test substance was dissolved in the amount described in Table 5 with respect to 1 mL of PBS(−). On the other hand, 5 μL of washed red blood cells immersed in PBS(−) and allowed to stand for about 15 minutes were taken out into a test tube, 150 μL each of a test substance solution was added thereto, and this was heated at 37° C. for 15 minutes. Then, 2 μL of a dissolved probe reagent in a glucose uptake assay kit (Glucose Uptake Assay Kit-Green, Dojindo Laboratories Co., Ltd.) was added and heated at 37° C. for 45 minutes. The probe reagent was fluorescently labeled glucose (fluorescently labeled glucose), and a powdered reagent dissolved in 20 μL of DMSO was used.
After the immersion in the reagents of the glucose uptake assay was completed, red blood cells were washed 3 times with 150 μL of a cooled 50-fold diluted WI solution (prepared by diluting the solution provided with the assay reagent 50-fold with PBS(−) at 4° C.), and 150 μL of a cooled 50-fold diluted WI solution was further added and stirred, and then 20 μL of the solution was dropped onto a glass slide and spread over the slide. Slides were photographed with fluorescence microscope.
The remaining red blood cells were centrifuged to discard the supernatant, and 125 μL of water for injection was added to the remaining lower red blood cells to cause hemolysis. The fluorescence intensity of 100 μL of the supernatant obtained by centrifugation was measured using a microplate reader (MTP-800Lab, Corona Electric Co., Ltd.). The measurement conditions were an excitation light wavelength of […] and a measurement fluorescence wavelength of […].

| SMILES | uptake of fluorescently labeled glucose / fluorescence in red blood cells (in words) | Fluorescence intensity of fluorescently labeled glucose uptake into red blood cells (test substance 1.25 mg/mL in PBS(−)) | Fluorescence intensity of fluorescently labeled glucose uptake into red blood cells (test substance 2 mg/mL in PBS(−)) | Fluorescence intensity of fluorescently labeled glucose uptake into red blood cells (test substance 1.5 mg/mL in PBS(−)) |
| --- | --- | --- | --- | --- |
| Nc1ncnc2c1ncn2[C@@H]1O[C@H](COP(=O)(O)OP(=O)(O)OP(=O)(O)O)[C@@H](O)[C@H]1O [ATP, adenosine triphosphate] | the degree of suppression of uptake was much lower than that of inosine | 163.3 | – | – |
| OC[C@H]1O[C@@H](n2cnc3c(O)ncnc32)[C@H](O)[C@@H]1O [Inosine, inosine] | fluorescence in red blood cells was hardly observed; also recorded: strong inhibitory effect on the uptake of glucose in red blood cells | – | 6.4 | – |
| [F-].[Na+] [Sodium fluoride, sodium fluoride] | the degree of suppression of uptake was much lower than that of inosine | – | – | 255.1 |
